Source: patent publication US20250282734A1 (Bayer Aktiengesellschaft, priority 2021, published 2025)
Like-named read-outs stand apart in the source and are kept apart here. Marks after values point to notes of the source that are not given here.

Assays:
[1] = Solubility of cholinate vs free acid and other salts, shake-flask method (Example 14); assay type: physicochemical
Description: (§1) Preparation of FaSSIF (Fasted State Simulated Intestinal Fluid) blank solution: 4.2 g NaOH, 44.7 g NaH2PO4*2 H2O, and 61.86 g NaCl were dissolved in approximately 9.5 L demineralized water. Then, the pH of this solution was adjusted to 6.50+/−0.05 using HCl or NaOH, respectively. In the last step, the final volume was adjusted to 10.0 L by the addition of demineralized water.
Preparation of the final FaSSIF solution: 4.48 g SIF (Simulated Intestinal Fluids) powder (provider: biorelevant.com, Product code: FFF01 (May 2022)) were dissolved in approximately 500 mL FaSSIF blank solution, then the final volume was adjusted to 2.0 L by the addition of FaSSIF blank solution. After 2 hours, the solution was considered to be ready to use and was used within 48 hours.
as §1, with “FeSSIF (Fed” for “FaSSIF (Fasted”, “40.4” for “4.2”, “118.74” for “44.7”, “NaCl,” for “NaH2PO4*2 H2O,”, “82.4 mL glacial acetic acid” for “61.86 g NaCl”, “5.00+/−0.05” for “6.50+/−0.05”
Preparation of the final FeSSIF solution: 22.4 g SIF powder (provider: biorelevant.com, Product code: FFF01 (May 2022)) were dissolved in approximately 500 mL FeSSIF blank solution, then the final volume was adjusted to 2.0 L by the addition of FeSSIF blank solution. The solution was considered to be ready to use immediately after manufacturing and was used within 48 hours.

[2] = Hygroscopy, dynamic vapour sorption (DVS) isotherms (Example 15); assay type: physicochemical
Description: Water sorption isotherms were determined using a DVS Resolution gravimetric sorption analyzer (London, UK), or a DVS Intrinsic instrument (Surface measurement Systems). The sample was dried for 1000 minutes at 0% relative humidity (R.H.). Afterwards the dry weight was recorded. […] The equilibrium criterion for each relative humidity set point was 0.002% per minute relative mass change as a function of time.

[3] = Dissolution profile, flow through cell in FeSSIF / FaSSIF (Example 16); assay type: physicochemical
Description: Prior to the measurements, the samples were micronized using a jet mill (MC DECJET 30) under nitrogen, with a pressure of 4.5 Bar for the injector and 4.0 Bar grinding pressure.
Dissolution rates of the drug substance were then determined using a flow through cell (FTC) from Sotax. All experiments were conducted in triplicates.
Then, the respective medium (FaSSIF or FeSSIF) was pumped through the cell with a pump rate of 2 mL/min for a total time of 14 minutes, resulting in a total volume of 28 mL. This volume was collected in time increments of 2 minutes, leading to 7 collected fractions with 4 mL each. The drug substance concentration of each fraction was determined by HPLC (external standard).

[4] = Solubility free acid vs. salt, shake-flask method (Example 12); assay type: physicochemical
[5] = Determination of exposure in rat after intragastric administration (Example 13); assay type: in vivo; conditions: for AUC(0-t): female, plasma, po, read-out: AUC(0-tlast); for AUC(0-t) / AUC(0-tlast)norm: free acid in rat plasma
Description: Determination of exposure after intragastric application of test compounds was performed in female conscious rats with a body weight of 0.2 kg (minimum) to 0.25 kg (maximum). The test compounds were applied as bolus via intragastric probe to unfed female rats in solution or suspension in the vehicle ethanol/solutol/water (v/v/v 10/40/50).
At the indicated timepoints between 8 min and 24 h after dosing, 150 μl blood were sampled via a catheter from the vena jugularis. The samples were treated with K-EDTA as anticoagulant and stored cooled until further processing (refrigerator, 4° C.). The samples were centrifuged (15 min, 3000 rpm), then an aliquot of 100 μL was taken from the supernatant (plasma), precipitated by addition of 400 μL cold acetonitrile or methanol (abs.) and frozen at −20° C. over night. The samples were centrifuged (15 min, 3000 rpm), then 150 μL of the clear supernatant were taken for analytical testing. Analytics were performed using an Agilent 1200 HPLC-system with LCMS/MS detection.
The applied dose of cholinate according to the invention was adjusted as compared to free acid according to the difference in molecular weight. The resulting equivalent doses were used for comparison.

Q: What does the source list for `O=C([O-])c1cc(NC(=O)C2(c3ccc(C(F)(F)F)cc3F)CC2)ccc1-c1cnn(C2CCC2)c1.[Na+]` [Sodium salt, Sodium 2-(1-cyclobutyl-1H-pyrazol-4-yl)-5-[({1-[2-fluoro-4-(trifluoromethyl)phenyl]cyclopropyl}carbonyl)amino]benzoate]?
A: solubility ([1]; Buffer pH 4.5, 25° C.): 3 mgfree acid/L; solubility ([1]; Buffer pH 7, 25° C.): 421 mgfree acid/L; solubility ([1]; Buffer pH 8, 25° C.): 5075 mgfree acid/L; solubility ([1]; FaSSIF (37° C.) (Fasted State Simulated Intestinal Fluid)): 426 mgfree acid/L; solubility ([1]; FeSSIF (37° C.) (Fed State Simulated Intestinal Fluid)): 14 mgfree acid/L; solubility ([1]; Water, 25° C.): 6176 mgfree acid/L; Change in mass [%], Desorption ([2]; 0% Relative humidity): −3.95%; Change in mass [%], Sorption ([2]; 0% Relative humidity): 0.00%; Change in mass [%], Desorption ([2]; 10% Relative humidity): −0.87%; Change in mass [%], Sorption ([2]; 10% Relative humidity): 0.85%; Change in mass [%], Desorption ([2]; 20% Relative humidity): 0.84%; Change in mass [%], Sorption ([2]; 20% Relative humidity): 1.36%; Change in mass [%], Desorption ([2]; 30% Relative humidity): 1.91%; Change in mass [%], Sorption ([2]; 30% Relative humidity): 1.92%; Change in mass [%], Desorption ([2]; 40% Relative humidity): 3.33%; Change in mass [%], Sorption ([2]; 40% Relative humidity): 2.95%; Change in mass [%], Desorption ([2]; 50% Relative humidity): 5.07%; Change in mass [%], Sorption ([2]; 50% Relative humidity): 7.77%; Change in mass [%], Desorption ([2]; 60% Relative humidity): 7.95%; Change in mass [%], Sorption ([2]; 60% Relative humidity): 11.23%; Change in mass [%], Desorption ([2]; 70% Relative humidity): 11.79%; Change in mass [%], Sorption ([2]; 70% Relative humidity): 15.05%; Change in mass [%], Desorption ([2]; 80% Relative humidity): 16.87%; Change in mass [%], Sorption ([2]; 80% Relative humidity): 20.22%; Change in mass [%], Desorption ([2]; 90% Relative humidity): 26.84%; Change in mass [%], Sorption ([2]; 90% Relative humidity): 30.67%; Change in mass [%], Desorption ([2]; 95% Relative humidity): 42.62%; Change in mass [%], Sorption ([2]; 95% Relative humidity): 42.62%; DVS Dm @ 30% R.H. (Sorption) ([2]; summarized results, 30% R.H.): 1.9%; DVS Dm @ 50% R.H. (Sorption) ([2]; summarized results, 50% R.H.): 5.1%; DVS Dm @ 80% R.H. (Sorption) ([2]; summarized results, 80% R.H.): 20.2%; Dissolution profile, comparison in words ([3]; micronized samples): no differences

Q: With `O=C(O)c1cc(NC(=O)C2(c3ccc(C(F)(F)F)cc3F)CC2)ccc1-c1cnn(C2CCC2)c1` [free acid, 2-(1-cyclobutyl-1H-pyrazol-4-yl)-5-[({1-[2-fluoro-4-(trifluoromethyl)-phenyl]cyclopropyl}carbonyl)amino]benzoic acid] as the compound, how does the solubility ([4]; Acetone, 25° C.) read?
A: 10100 mg/L

Q: And the solubility ([4]; Acetonitrile, 25° C.)?
A: 1290 mg/L

Q: What about the solubility ([4]; Ethanol, 25° C.) of the same compound?
A: 4260 mg/L

Q: And the solubility ([4]; PEG 400, 25° C.)?
A: 6830 mg/L

Q: And the solubility ([4]; Phosphate buffer pH 7, 25° C.)?
A: 87 mg/L

Q: And the solubility ([4]; Solutol/Ethanol/Water (40/10/50 V/V/V), 25° C.)?
A: 1300 mg/L

Q: What about the solubility ([4]; Water, 25° C., stirred overnight) of the same compound?
A: <1* mg/L

Q: What about the “pH of the clear solution” value ([4]; solubility test in water, pH of water before stirring: 5.57) of the same compound?
A: *pH of the clear solution: 4.6

Q: What about the AUC(0-t) ([5]; rat, 3 mg/kg, dose equiv. 3 mg/kg) of the same compound?
A: 24 µg·h/mL

Q: What about the AUC(0-t) ([5]; rat, 30 mg/kg, dose equiv. 30 mg/kg) of the same compound?
A: 149 µg·h/mL

Q: What about the AUC(0-t) ([5]; rat, 100 mg/kg, dose equiv. 100 mg/kg) of the same compound?
A: 247 µg·h/mL

Q: What about the AUC(0-t) ([5]; rat, 150 mg/kg, dose equiv. 150 mg/kg) of the same compound?
A: 225 µg·h/mL

Q: And the AUC(0-tlast)norm ([5]; dose equiv. 3 mg/kg)?
A: 8.1 kg·h/L

Q: What about the AUC(0-tlast)norm ([5]; dose equiv. 30 mg/kg) of the same compound?
A: 5 kg·h/L

Q: And the AUC(0-tlast)norm ([5]; dose equiv. 100 mg/kg)?
A: 2.5 kg·h/L

Q: What about the AUC(0-tlast)norm ([5]; dose equiv. 150 mg/kg) of the same compound?
A: 1.5 kg·h/L

Q: What about the “Increase of plasma exposure of free acid with dose” value ([5]; rat, doses above 30 mg/kg) of the same compound?
A: much less than dose-proportional increase of exposure

Q: What about the “Change in mass [%], Desorption” value ([2]; 0% Relative humidity) of the same compound?
A: 0.65%

Q: What about the “Change in mass [%], Sorption” value ([2]; 0% Relative humidity) of the same compound?
A: 0.06%

Q: And the “Change in mass [%], Desorption” value ([2]; 10% Relative humidity)?
A: 0.52%

Q: What about the “Change in mass [%], Sorption” value ([2]; 10% Relative humidity) of the same compound?
A: 0.08%

Q: What about the “Change in mass [%], Desorption” value ([2]; 20% Relative humidity) of the same compound?
A: 0.42%

Q: And the “Change in mass [%], Sorption” value ([2]; 20% Relative humidity)?
A: 0.10%

Q: What about the “Change in mass [%], Desorption” value ([2]; 30% Relative humidity) of the same compound?
A: 0.35%

Q: And the “Change in mass [%], Sorption” value ([2]; 30% Relative humidity)?
A: 0.12%

Q: And the “Change in mass [%], Desorption” value ([2]; 40% Relative humidity)?
A: 0.29%

Q: What about the “Change in mass [%], Sorption” value ([2]; 40% Relative humidity) of the same compound?
A: 0.14%

Q: And the “Change in mass [%], Desorption” value ([2]; 50% Relative humidity)?
A: 0.16%

Q: What about the “Change in mass [%], Sorption” value ([2]; 50% Relative humidity) of the same compound?
A: 0.17%

Q: What about the “Change in mass [%], Desorption” value ([2]; 60% Relative humidity) of the same compound?
A: 0.09%

Q: What about the “Change in mass [%], Sorption” value ([2]; 60% Relative humidity) of the same compound?
A: 0.20%

Q: What about the “Change in mass [%], Desorption” value ([2]; 70% Relative humidity) of the same compound?
A: 0.05%

Q: And the “Change in mass [%], Sorption” value ([2]; 70% Relative humidity)?
A: 0.23%

Q: What about the “Change in mass [%], Desorption” value ([2]; 80% Relative humidity) of the same compound?
A: 0.03%

Q: What about the “Change in mass [%], Sorption” value ([2]; 80% Relative humidity) of the same compound?
A: 0.29%

Q: What about the “Change in mass [%], Desorption” value ([2]; 90% Relative humidity) of the same compound?
A: 0.01%

Q: What about the “Change in mass [%], Sorption” value ([2]; 90% Relative humidity) of the same compound?
A: 0.44%

Q: What about the “Change in mass [%], Desorption” value ([2]; 95% Relative humidity) of the same compound?
A: 0.00%

Q: What about the “Change in mass [%], Sorption” value ([2]; 95% Relative humidity) of the same compound?
A: 0.65%

Q: What about the “Dissolution in FaSSIF, comparison in words” value ([3]; FaSSIF, 14 minutes, micronized) of the same compound?
A: dissolved slower

Q: What about the “Dissolution in FeSSIF, comparison in words” value ([3]; FeSSIF, 14 minutes, micronized) of the same compound?
A: significantly slower
